21 compounds from US9273040B2 (Merck Sharp & Dohme Corp., priority 2011, dated 2016) can be followed below.

Holding throughout (assay type): cell-based
For test [1], the target named is T1, human Nav1.7 channels stably expressed in HEK 293 cells (Homo sapiens, UniProt Q15858).
T1 construct: expressed in transfected cells
Nature of the test: IonWorks Quattro automated patch-clamp, sodium current, inactivated state block. The conditions noted are these: read-out: potency for the Nav 1.7 sodium ion channel (as measured by IonWorks). The method, then:
(§1) Compounds were tested on human Nav1.7 and Nav1.5 channels stably expressed in HEK 293 cells. […] Cells were sealed on a planar substrate using the Population Patch Plate (PPC) technology. Electrical access was obtained using both nystatin and amphotericin. A double-pulse protocol was used for the determination of IC50 values for inactivated state block. Nav1.7 and Nav1.5 expressing cells were voltage clamped at −100 mV and −110 mV, respectively. A depolarizing prepulse to −10 mV (Nav1.7) or −30 mV (Nav1.5) for 1000 ms followed by a 10 ms repolarization to −100 mV (Nav1.7) or −110 mV (Nav1.5) was given to generate fractional channel inactivation of ˜50%, followed by a 10 ms test pulse to −10 mV (Nav1.7) or −30 mV (Nav1.5) to measure peak current in control conditions and after compound addition. The following recording solutions were used (mM). External: 150 NaCl, 2 CaCl2, 5 KCl, 1 Mg Cl2, 10 HEPES, 12 Dextrose; internal: 120 CsF, 30 CsCl, 10 EGTA, 5 HEPES, 5 NaF, 2 MgCl2.
(§2) For all electrophysiology experiments, offline analysis was used to correct for current rundown and to determine percent inhibition as a function of drug concentration. IC50 values were determined by fitting to the Hill equation.
For orientation: Patch clamp records ionic current or voltage across a cell membrane.

In test [2] the target is T2, human Nav1.5 channels stably expressed in HEK 293 cells (Homo sapiens, UniProt Q14524).
T2 construct: expressed in transfected cells
The test is described as above. The conditions noted are these: selectivity over Nav1.5. The method, then:
as §1, §2

The target in test [3] is T1, human Nav1.7 channels stably expressed in HEK 293 cells. Briefly: PatchXpress 7000 automated patch-clamp, sodium current. The conditions noted are these: 22° C., read-out: potency for the Nav 1.7 sodium ion channel (as measured by PatchXpress). The method in brief:
(§3)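 IC50 values came from Hill-equation fits of rundown-corrected inhibition. PatchXpress recordings at 22° C held cells 20 mV negative to V0.5 inact and applied 10 Hz trains of 30 ms steps to −20 mV (Nav1.7) or an 8000 ms prepulse 7 mV positive to V0.5 inact. […]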

Test [4] deals with T2, human Nav1.5 channels stably expressed in HEK 293 cells. The test is described as above. The conditions noted are these: selectivity over Nav1.5. The method in brief: as §3

Molecules are shown by their SMILES.

T1 sequence (Q15858 whole entry): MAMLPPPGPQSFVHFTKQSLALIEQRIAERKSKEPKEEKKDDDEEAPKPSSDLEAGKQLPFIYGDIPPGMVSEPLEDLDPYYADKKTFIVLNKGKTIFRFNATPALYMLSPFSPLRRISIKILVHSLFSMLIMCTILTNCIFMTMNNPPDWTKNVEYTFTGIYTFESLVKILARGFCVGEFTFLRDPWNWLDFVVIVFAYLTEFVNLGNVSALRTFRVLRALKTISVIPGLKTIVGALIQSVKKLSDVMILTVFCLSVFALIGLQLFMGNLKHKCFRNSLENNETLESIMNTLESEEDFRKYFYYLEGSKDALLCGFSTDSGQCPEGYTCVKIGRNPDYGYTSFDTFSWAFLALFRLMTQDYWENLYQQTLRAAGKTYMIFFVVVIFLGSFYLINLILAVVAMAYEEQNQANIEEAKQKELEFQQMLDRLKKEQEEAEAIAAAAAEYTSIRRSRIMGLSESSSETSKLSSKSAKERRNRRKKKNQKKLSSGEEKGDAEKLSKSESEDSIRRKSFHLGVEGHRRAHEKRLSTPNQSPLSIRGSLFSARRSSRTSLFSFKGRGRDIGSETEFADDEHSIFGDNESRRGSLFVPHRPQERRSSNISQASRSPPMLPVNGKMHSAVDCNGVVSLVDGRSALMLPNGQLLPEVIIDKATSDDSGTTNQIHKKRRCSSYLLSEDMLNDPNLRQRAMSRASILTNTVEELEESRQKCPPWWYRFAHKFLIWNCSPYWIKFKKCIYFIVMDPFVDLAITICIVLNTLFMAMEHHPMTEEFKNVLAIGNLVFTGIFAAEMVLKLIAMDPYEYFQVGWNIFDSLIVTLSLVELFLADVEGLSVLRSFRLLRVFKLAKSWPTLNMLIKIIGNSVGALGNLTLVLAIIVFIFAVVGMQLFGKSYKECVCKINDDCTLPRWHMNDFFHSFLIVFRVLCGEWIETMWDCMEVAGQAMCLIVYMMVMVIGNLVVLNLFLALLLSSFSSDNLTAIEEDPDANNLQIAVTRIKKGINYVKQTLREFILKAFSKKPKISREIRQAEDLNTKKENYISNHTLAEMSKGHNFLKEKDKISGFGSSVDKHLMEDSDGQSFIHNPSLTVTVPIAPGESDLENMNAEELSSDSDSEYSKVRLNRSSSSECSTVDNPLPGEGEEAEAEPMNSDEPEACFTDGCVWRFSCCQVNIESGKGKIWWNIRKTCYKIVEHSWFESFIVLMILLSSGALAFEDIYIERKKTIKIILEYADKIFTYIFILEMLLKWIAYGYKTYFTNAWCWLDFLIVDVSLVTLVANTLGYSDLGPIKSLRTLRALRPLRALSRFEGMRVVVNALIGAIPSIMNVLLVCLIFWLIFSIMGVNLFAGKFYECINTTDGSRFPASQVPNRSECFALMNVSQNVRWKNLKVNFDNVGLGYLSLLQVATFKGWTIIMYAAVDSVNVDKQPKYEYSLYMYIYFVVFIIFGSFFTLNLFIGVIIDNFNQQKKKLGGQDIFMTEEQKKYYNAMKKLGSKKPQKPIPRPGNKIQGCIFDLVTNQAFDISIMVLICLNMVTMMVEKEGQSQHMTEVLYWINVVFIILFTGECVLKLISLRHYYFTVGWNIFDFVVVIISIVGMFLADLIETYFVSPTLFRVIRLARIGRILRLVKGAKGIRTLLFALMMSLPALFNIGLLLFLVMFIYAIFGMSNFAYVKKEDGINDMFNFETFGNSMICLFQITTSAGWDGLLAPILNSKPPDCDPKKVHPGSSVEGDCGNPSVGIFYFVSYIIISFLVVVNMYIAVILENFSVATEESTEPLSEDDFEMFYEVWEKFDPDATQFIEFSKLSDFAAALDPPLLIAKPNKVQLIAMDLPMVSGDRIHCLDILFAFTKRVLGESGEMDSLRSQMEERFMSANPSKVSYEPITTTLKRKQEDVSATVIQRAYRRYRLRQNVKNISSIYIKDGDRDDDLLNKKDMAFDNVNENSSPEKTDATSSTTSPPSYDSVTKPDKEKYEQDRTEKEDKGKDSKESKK
T2 sequence (Q14524 whole entry): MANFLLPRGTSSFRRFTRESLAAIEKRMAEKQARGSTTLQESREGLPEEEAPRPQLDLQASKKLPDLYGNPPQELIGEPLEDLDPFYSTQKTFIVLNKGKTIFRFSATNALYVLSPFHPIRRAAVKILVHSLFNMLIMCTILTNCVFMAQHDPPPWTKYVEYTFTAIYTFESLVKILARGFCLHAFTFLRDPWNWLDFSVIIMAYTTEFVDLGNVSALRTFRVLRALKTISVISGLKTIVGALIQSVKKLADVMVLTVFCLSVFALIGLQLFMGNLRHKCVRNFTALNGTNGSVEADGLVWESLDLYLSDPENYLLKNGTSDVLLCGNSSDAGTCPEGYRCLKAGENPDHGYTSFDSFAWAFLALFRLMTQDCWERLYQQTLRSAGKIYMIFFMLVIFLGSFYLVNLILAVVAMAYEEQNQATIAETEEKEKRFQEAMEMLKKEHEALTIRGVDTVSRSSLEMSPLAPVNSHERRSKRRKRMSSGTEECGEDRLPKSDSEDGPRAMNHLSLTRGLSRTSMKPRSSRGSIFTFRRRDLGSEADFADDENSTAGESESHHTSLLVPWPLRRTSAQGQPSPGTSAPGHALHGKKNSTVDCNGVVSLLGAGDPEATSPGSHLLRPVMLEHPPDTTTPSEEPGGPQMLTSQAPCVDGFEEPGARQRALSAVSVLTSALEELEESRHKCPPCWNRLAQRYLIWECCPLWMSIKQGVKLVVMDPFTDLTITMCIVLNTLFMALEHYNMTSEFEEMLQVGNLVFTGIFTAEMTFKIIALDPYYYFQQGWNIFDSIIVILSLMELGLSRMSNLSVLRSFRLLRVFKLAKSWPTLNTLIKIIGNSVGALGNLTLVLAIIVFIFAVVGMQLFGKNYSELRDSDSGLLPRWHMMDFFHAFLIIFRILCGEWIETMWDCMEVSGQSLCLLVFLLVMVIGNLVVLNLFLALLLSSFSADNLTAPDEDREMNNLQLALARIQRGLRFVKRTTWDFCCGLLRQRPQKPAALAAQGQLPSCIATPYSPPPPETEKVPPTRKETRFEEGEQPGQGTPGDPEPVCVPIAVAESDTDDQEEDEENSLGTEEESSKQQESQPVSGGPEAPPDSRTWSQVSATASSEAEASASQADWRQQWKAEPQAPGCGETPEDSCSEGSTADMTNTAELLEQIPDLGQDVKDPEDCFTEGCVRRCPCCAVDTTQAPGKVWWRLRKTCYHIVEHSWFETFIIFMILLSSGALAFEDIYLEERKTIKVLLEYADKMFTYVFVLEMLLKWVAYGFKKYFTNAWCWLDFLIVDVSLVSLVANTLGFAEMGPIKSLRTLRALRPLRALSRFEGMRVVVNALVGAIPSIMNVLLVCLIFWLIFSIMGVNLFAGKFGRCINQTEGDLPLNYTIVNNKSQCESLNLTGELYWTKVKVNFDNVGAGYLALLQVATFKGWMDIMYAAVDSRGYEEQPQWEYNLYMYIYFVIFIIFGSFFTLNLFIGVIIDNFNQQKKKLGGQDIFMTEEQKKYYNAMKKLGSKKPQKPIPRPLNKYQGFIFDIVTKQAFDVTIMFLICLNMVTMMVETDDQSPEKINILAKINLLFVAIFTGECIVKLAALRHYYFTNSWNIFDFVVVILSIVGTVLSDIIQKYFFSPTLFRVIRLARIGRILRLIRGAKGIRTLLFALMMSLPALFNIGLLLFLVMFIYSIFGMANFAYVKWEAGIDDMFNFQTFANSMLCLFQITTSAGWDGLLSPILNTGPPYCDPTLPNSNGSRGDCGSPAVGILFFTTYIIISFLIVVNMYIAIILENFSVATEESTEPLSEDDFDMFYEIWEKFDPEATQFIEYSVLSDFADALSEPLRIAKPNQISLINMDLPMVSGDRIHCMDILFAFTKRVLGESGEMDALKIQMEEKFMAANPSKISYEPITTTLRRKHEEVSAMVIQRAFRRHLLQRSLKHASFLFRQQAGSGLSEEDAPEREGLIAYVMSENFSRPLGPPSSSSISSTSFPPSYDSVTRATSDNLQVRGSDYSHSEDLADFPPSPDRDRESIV

In the case of `NCc1ccc(Cl)cc1Cn1c(=O)oc2cc(S(=O)(=O)Nc3ncns3)ccc21` [Compound 1-15, 3-[2-(aminomethyl)-5-chlorobenzyl]-2-oxo-N-1,2,4-thiadiazol-5-yl-2,3-dihydro-1,3-benzoxazole-6-sulfonamide], in test [1], the IC50 was 605 nM. For the same compound, the “ratio of Nav 1.5:Nav 1.7 potency, determined by IonWorks measurement” value in test [2] was > 55.
As for `O=c1oc2cc(S(=O)(=O)Nc3ncns3)ccc2n1Cc1cccc2c1CCNC2` [Compound 1-16, 2-oxo-3-(1,2,3,4-tetrahydroisoquinolin-5-ylmethyl)-N-1,2,4-thiadiazol-5-yl-2,3-dihydro-1,3-benzoxazole-6-sulfonamide], the IC50 in test [3] amounted to 3210 nM; in test [1] it was 1690 nM. For the same compound, in test [4], the “ratio of Nav 1.5:Nav 1.7 potency, determined by PatchXpress measurement” value (shortened to “ratio … by PatchXpress measurement”) is on record as > 9.
On to `O=c1oc2cc(S(=O)(=O)Nc3ncns3)ccc2n1Cc1ccccc1C1=CCCNC1` [Compound 3-6, 2-oxo-3-[2-(1,2,5,6-tetrahydropyridin-3-yl)benzyl]-N-1,2,4-thiadiazol-5-yl-2,3-dihydro-1,3-benzoxazole-6-sulfonamide], for which the IC50 in test [3] was 329 nM; in test [1], 287 nM. Further, the “ratio … by PatchXpress measurement” value in test [4] was > 91.
Turning to `O=c1oc2cc(S(=O)(=O)Nc3ncns3)ccc2n1Cc1ccccc1-c1ccnc(CN2CCCCC2)c1` [Compound 3-10, 2-oxo-3-{2-[2-(piperidin-1-ylmethyl)pyridin-4-yl]benzyl}-N-1,2,4-thiadiazol-5-yl-2,3-dihydro-1,3-benzoxazole-6-sulfonamide], the IC50 in test [1] stood at 1740 nM.
`O=c1oc2cc(S(=O)(=O)Nc3ncns3)ccc2n1Cc1cccc(-c2ccc3c(c2)CNCC3)c1` [Compound 3-12, 2-oxo-3-[3-(1,2,3,4-tetrahydroisoquinolin-7-yl)benzyl]-N-1,2,4-thiadiazol-5-yl-2,3-dihydro-1,3-benzoxazole-6-sulfonamide]: the IC50 in test [3] was determined as 545 nM; in test [1], 287 nM. Besides, the “ratio … by PatchXpress measurement” value in test [4] is 55.
Take `O=c1oc2cc(S(=O)(=O)Nc3ncns3)ccc2n1Cc1cccc(C2=CCCNC2)c1` [Compound 3-15, 2-oxo-3-[3-(1,2,5,6-tetrahydropyridin-3-yl)benzyl]-N-1,2,4-thiadiazol-5-yl-2,3-dihydro-1,3-benzoxazole-6-sulfonamide]: the IC50 in test [1] was 646 nM.
As for `O=c1oc2cc(S(=O)(=O)Nc3ncns3)ccc2n1Cc1cccc(C2=CC3CCC(C2)N3)c1` (stereo not shown) [Compound 3-18, 3-[3-(8-azabicyclo[3.2.1]oct-2-en-3-yl)benzyl]-2-oxo-N-1,2,4-thiadiazol-5-yl-2,3-dihydro-1,3-benzoxazole-6-sulfonamide], the IC50 in test [1] amounted to 1330 nM.
`O=c1oc2cc(S(=O)(=O)Nc3ncns3)ccc2n1C(c1ccccc1)c1ncco1` (stereo not shown) [Compound 4-10, 3-[1,3-oxazol-2-yl(phenyl)methyl]-2-oxo-N-1,2,4-thiadiazol-5-yl-2,3-dihydro-1,3-benzoxazole-6-sulfonamide]: the IC50 in test [3] amounted to 643 nM; in test [1], 1330 nM. In addition, the “ratio … by PatchXpress measurement” value in test [4] is listed as > 47.
With `C=CCC(c1ccccc1)n1c(=O)oc2cc(S(=O)(=O)Nc3ncns3)ccc21` (stereo not shown) [Compound 4-13, 2-oxo-3-(1-phenylbut-3-en-1-yl)-N-1,2,4-thiadiazol-5-yl-2,3-dihydro-1,3-benzoxazole-6-sulfonamide], the IC50 was 88 nM in test [3] and 272 nM in test [1]. The “ratio … by PatchXpress measurement” value in test [4] is given as 177.
Regarding `CCCN1CCc2cccc(Cn3c(=O)oc4cc(S(=O)(=O)Nc5ncns5)ccc43)c2C1` [Compound 6-3, 2-oxo-3-[(2-propyl-1,2,3,4-tetrahydroisoquinolin-8-yl)methyl]-N-1,2,4-thiadiazol-5-yl-2,3-dihydro-1,3-benzoxazole-6-sulfonamide], the IC50 in test [1] is 642 nM.
In the case of `Nc1ccc2c(c1)C(n1c(=O)oc3cc(S(=O)(=O)Nc4nccs4)c(F)cc31)CCC2` (stereo not shown) [Compound 43-16, 3-(7-amino-1,2,3,4-tetrahydronaphthalen-1-yl)-5-fluoro-2-oxo-N-1,3-thiazol-2-yl-2,3-dihydro-1,3-benzoxazole-6-sulfonamide], the IC50 in test [3] worked out at 211 nM. The “ratio … by PatchXpress measurement” value in test [4] is recorded as 329.
Turning to `C[C@@H](c1cccc2cncn12)n1c(=O)oc2cc(S(=O)(=O)Nc3nccs3)c(F)cc21` [Compound 43-17, 5-fluoro-3-[(1S)-1-imidazo[1,5-a]pyridin-5-ylethyl]-2-oxo-N-1,3-thiazol-2-yl-2,3-dihydro-1,3-benzoxazole-6-sulfonamide], in test [3], the IC50 came to 621 nM. In addition, the “ratio … by PatchXpress measurement” value in test [4] is 48.
With `C[C@H](c1cccc2cncn12)n1c(=O)oc2cc(S(=O)(=O)Nc3nccs3)c(F)cc21` [Compound 43-18, 5-fluoro-3-[(1R)-1-imidazo[1,5-a]pyridin-5-ylethyl]-2-oxo-N-1,3-thiazol-2-yl-2,3-dihydro-1,3-benzoxazole-6-sulfonamide], in test [3], the IC50 was determined as 215 nM. Besides, the “ratio … by PatchXpress measurement” value in test [4] is listed as 139.
For the compound `C[C@H](c1ccccc1C#CCN)n1c(=O)oc2cc(S(=O)(=O)Nc3nccs3)c(F)cc21` [Compound 43-19, 3-{(1R)-1-[2-(3-aminoprop-1-yn-1-yl)phenyl]ethyl}-5-fluoro-2-oxo-N-1,3-thiazol-2-yl-2,3-dihydro-1,3-benzoxazole-6-sulfonamide], in test [3], the IC50 worked out at 29 nM. Further, the “ratio … by PatchXpress measurement” value in test [4] is reported as 1267.
Turning to `C[C@@H](c1ccccc1C1CNC1)n1c(=O)oc2cc(S(=O)(=O)Nc3nccs3)c(F)cc21` [Compound 43-20, 3-[(1S)-1-(2-azetidin-3-ylphenyl)ethyl]-5-fluoro-2-oxo-N-1,3-thiazol-2-yl-2,3-dihydro-1,3-benzoxazole-6-sulfonamide], in test [3], the IC50 was 621 nM. Besides, in test [4], the “ratio … by PatchXpress measurement” value amounted to 48.
As to `C[C@H](c1ccccc1C1CNC1)n1c(=O)oc2cc(S(=O)(=O)Nc3nccs3)c(F)cc21` [Compound 43-21, 3-[(1R)-1-(2-azetidin-3-ylphenyl)ethyl]-5-fluoro-2-oxo-N-1,3-thiazol-2-yl-2,3-dihydro-1,3-benzoxazole-6-sulfonamide], in test [3], the IC50 is 18 nM. In test [4], the “ratio … by PatchXpress measurement” value was 1164.
For the compound `C[C@H](c1ccccc1C1(O)CNC1)n1c(=O)oc2cc(S(=O)(=O)Nc3nccs3)c(F)cc21` [Compound 43-22, 5-fluoro-3-{(1R)-1-[2-(3-hydroxyazetidin-3-yl)phenyl]ethyl}-2-oxo-N-1,3-thiazol-2-yl-2,3-dihydro-1,3-benzoxazole-6-sulfonamide], the IC50 in test [3] came out at 61 nM. Further, in test [4], the “ratio … by PatchXpress measurement” value was determined as 703.
As for `C[C@H](c1ccccc1C1(F)CNC1)n1c(=O)oc2cc(S(=O)(=O)Nc3nccs3)c(F)cc21` [Compound 43-23, 5-fluoro-3-{(1R)-1-[2-(3-fluoroazetidin-3-yl)phenyl]ethyl}-2-oxo-N-1,3-thiazol-2-yl-2,3-dihydro-1,3-benzoxazole-6-sulfonamide], the IC50 in test [3] was determined as 4 nM. Also, in test [4], the “ratio … by PatchXpress measurement” value is given as 5541.
For `Cc1n[nH]cc1-c1cccc([C@@H](C)n2c(=O)oc3cc(S(=O)(=O)Nc4nccs4)c(F)cc32)c1` [Compound 43-24, 5-fluoro-3-{(1R)-1-[3-(3-methyl-1H-pyrazol-4-yl)phenyl]ethyl}-2-oxo-N-1,3-thiazol-2-yl-2,3-dihydro-l,3-benzoxazole-6-sulfonamide] the same measures were 103 nM and 33.
Consider `C[C@H](c1cccc(-c2ccn(C)n2)c1)n1c(=O)oc2cc(S(=O)(=O)Nc3nccs3)c(F)cc21` [Compound 43-25, 5-fluoro-3-{(1R)-1-[3-(1-methyl-1H-pyrazol-3-yl)phenyl]ethyl}-2-oxo-N-1,3-thiazol-2-yl-2,3-dihydro-1,3-benzoxazole-6-sulfonamide], for which the IC50 in test [3] came to 306 nM. For the same compound, the “ratio … by PatchXpress measurement” value in test [4] is given as 86.
On to `Cl.O=c1oc2cc(S(=O)(=O)Nc3nccs3)c(F)cc2n1Cc1cccc2c1CNCC2(F)F` [Compound 44-5, 3-((4,4-Difluoro-1,2,3,4-tetrahydroisoquinolin-8-yl)methyl)-5-fluoro-2-oxo-N-(thiazol-2-yl)-2,3-dihydrobenzo[d]oxazole-6-sulfonamide hydrochloride], for which the IC50 in test [3] stood at 181 nM. In addition, in test [4], the “ratio … by PatchXpress measurement” value was found to be 151.
